“And” between values parts separate entries of the source, which are not always exact repeats. Equal entries are not always repeated. Where two headings read alike, the source gives them in different places.
What was measured:
[1] = Plasma and tissue drug levels after IV bolus and CIV infusion, rat C6 orthotopic brain tumors; assay type: in vivo
Description: 14 days post-tumor implantation, rats received a bolus IV administration of compound 1 (30 mg/kg; 1.5 mL at 0.5 mL per min) followed by continuous IV infusion (5 mg/kg/hour; 0.7 mL/hour) over 3 hours. The animals were then sacrificed by anesthetic overdose and blood was collected by heart puncture. Brain, tumor and liver were snap-frozen in liquid nitrogen and stored at −80° C. until analysis. Blood samples was collected into K2-EDTA tubes and kept on ice for a maximum of 30 min. Samples were then centrifuged at 4° C. and 1500 g (RCF). A volume of 225 μL of rat plasma was added to clean tubes containing 25 μL of aqueous 4% w/v L-ascorbic acid and samples were mixed and stored at −80° C. until analysis.
Binding potential (B.P.) data and Compound 1 plasma levels and tissue levels for each of the seven rats included in the study are presented in Table 23 below and summarized in FIG. 7.

PBR = target: T1, PBR (Rattus norvegicus, UniProt P16257); test: In vivo PBR occupancy by PET (11C-(R)-PK11195) following IV bolus and CIV infusion
T1 construct: from tissue; host or cells: orthotopic rat C6 glioma in Sprague-Dawley rats, in vivo
Description: (R)-1-(2-chlorophenyl)-N-methyl-N-(1-methyl-propyl)-3-isoquinoline carboxamide (R N-desmethyl PK11195), the precursor for the radioisotope-labeled (R) —PK11195, was purchased from ABX (Radeburg, Germany). The synthesis of ^11C-(R)-PK11195 was accomplished by a modification of the method of Camsonne et al. (J. Label. Compd. Radiopharm., 21: 985-991,1984). Briefly, ^11C-methyl iodide (^11C—CH3I) was transferred by a stream of nitrogen gas at a flow rate of 10 ml/min into a reaction medium containing 1 mg or R—N-desmethyl PK11195 previously dissolved in 0.5 mL of dimethylsulfoxide (DMSO) and about 20 mg of sodium hydroxide. The reaction was initiated at room temperature, with a bubbling of the ^11C—CH3I being continued over a 5 minute period. After bubbling was complete, the reaction mixture was left standing for 5 minutes. Purification was performed by high pressure liquid chromatography (HPLC) using a reverse-phase C18 column and a methanol:ammonium formate (20 mM) (80:20) mixture and a mobile phase at a flow rate of 3 mL/min. ^11C—(R) —PK11195 was eluted at 11 minutes and obtained with a specific radioactivity of […].
The above study was repeated but his time ECO-4601 was administered as a bolus push followed by a continuous intra-venous (CIV) infusion of ECO-4601 obtained in the steady-state condition through the second 11C-PK11195 PET scan. […]
To determine a mean tumor binding potential (B.P.) (baseline) and the mean B.P., the simplified reference tissue method was utilized comparing the ratio of tumor to normal brain. As a result, mean tumor binding potential (B.P.) (baseline) was calculated to be 2.19±0.16 (mean±SEM) and the mean B.P. (ECO-4601) was calculated to be 0.14±0.13 (mean±SEM).

[2] = tested on: 60 different human tumor cell lines; test: NCI in vitro screening, 60 human tumor cell lines; assay type: cell-based; conditions: for GI50: Homo sapiens
Text: A study measuring the in vitro cytotoxic activity of Compound 1 was first performed by the NCI (National Cancer Institute, U.S. National Institutes of Health, Bethesda, Md., USA) against a panel of human cancer cell lines. This screen utilizes 60 different human tumor cell lines, representing cancers of the blood, skin, lung, colon, brain, ovary, breast, prostate, and kidney (More information available at: http://dtp.nci.nih.gov/branches/btb/ivclsp.html.) The compound was sent and tested on three occasions (Mar. 31, 2003; Dec. 1, 2003; Mar. 27, 2007).

human MEK1 = target: T2, human MEK1 (Homo sapiens, UniProt Q02750); test: Upstate Kinase Profiler, MEK1; assay type: biochemical
T2 construct: purchased Upstate (Kinase Profiler Service; Dundee, UK)
Description: Unlike current Ras signalling pathway inhibitors, ECO-4601 is not a direct kinase inhibitor. This was documented by evaluating the effect of ECO-4601 on human EGFR, c-RAF, MEK1, MAPK1 (ERK1) and MAPK2 (ERK2) kinase-activity (Upstate Kinase Profiler™ Service; Dundee, UK). ECO-4601 was tested at 0.5 μM and 5 μM in a final volume of 25 μL according to standard protocols developed by Upstate Ltd. Briefly, purified recombinant human enzymes were incubated with 25 mM Tris pH 7.5 containing EGTA, a specific substrate and γ-^32P-ATP. The reaction was initiated with MgATP mix and incubated for 40 minutes at RT. The reaction was stopped by the addition of 5 μL of a 3% phosphoric acid solution; aliquots were spotted on filters and counted. Detailed procedures are available on the Millipore Upstate website.

[3] = tested on: GHA oligodendroglioma cell line; test: MTT cytotoxicity, GHA cell line; assay type: cell-based; conditions: 96 h, Human
Description: The cytotoxic activity of Compound 1 was further evaluated using a panel of brain tumor cell lines. This study was performed in collaboration with INSERM (Grenoble, France). Tumor cells (5,000 to 10,000 cells per well depending on their doubling time) were plated in 96-well flat-bottom plates and incubated for 24 hours before treatment. Tumor cells were then incubated for 96 hours with seven different concentrations of Compound 1: […], 0.01, and 0.001 μM. The in vitro cytotoxic activity was determined by a standard MTT assay.

[4] = individual rats, IV bolus 30 mg/kg then CIV 5 mg/kg/hour over 3 hours, listed as ECO-4601
[5] = individual rats, IV bolus 30 mg/kg then CIV 5 mg/kg/hour, listed as ECO-4601

T2 sequence (Q02750 whole entry): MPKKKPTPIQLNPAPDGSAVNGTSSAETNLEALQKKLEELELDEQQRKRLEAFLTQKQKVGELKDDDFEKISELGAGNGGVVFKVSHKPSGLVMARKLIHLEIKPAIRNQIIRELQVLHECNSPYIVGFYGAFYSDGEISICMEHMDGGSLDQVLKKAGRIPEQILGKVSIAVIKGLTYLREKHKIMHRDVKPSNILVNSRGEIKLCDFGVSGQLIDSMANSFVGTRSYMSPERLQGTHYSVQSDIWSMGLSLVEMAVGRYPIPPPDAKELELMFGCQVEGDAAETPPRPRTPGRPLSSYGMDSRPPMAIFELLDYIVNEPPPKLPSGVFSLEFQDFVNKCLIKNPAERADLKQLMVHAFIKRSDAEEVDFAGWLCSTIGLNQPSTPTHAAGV

## CC(C)=CCC/C(C)=C/CC/C(C)=C/CN1C(=O)c2cccc(O)c2Nc2c(O)cc(O)cc21 [Compound 1, 10-farnesyl-4,6,8-trihydroxy-5,10-dihydrodibenzo[b,e][1,4]diazepin-11-one]
[1]; FIG. 7
  tumor compared to liver: 7 fold
[1]; [4]
  Brain Drug Level: 527 ng/g and 692 ng/g and 823 ng/g and 1265 ng/g and 941 ng/g and 503 ng/g and 596 ng/g
  Liver Drug Level: 11.2 µg/g and 6.91 µg/g and 53.1 µg/g and 61.0 µg/g and 14.2 µg/g and 3.31 µg/g and 2.29 µg/g
  Plasma Drug Level: 16000 ng/mL and 12000 ng/mL and 22000 ng/mL and 32000 ng/mL and 11500 ng/mL and 4200 ng/mL and 4100 ng/mL
  Tumor Drug Level: 234 µg/g and 8.46 µg/g and 182 µg/g and 273 µg/g and 242 µg/g and 8.98 µg/g and 119 µg/g
[1]; rat, liver, intravenous, FIG. 7, read-out: liver level (mean)
  concentration at 3 h: 24800 ng/g
[1]; rat, plasma, intravenous, FIG. 7, read-out: plasma level (mean)
  concentration at 3 h: 16200 ng/g
[1]; rat, tumor / plasma, intravenous, FIG. 7, read-out: tumor compared to plasma
  Kp at 3 h: 11
[1]; rat, tumor, intravenous, FIG. 7, read-out: accumulation in the tumor (mean level)
  concentration at 3 h: 176000 ng/mL
PBR; CIV infusion, mean±SEM, n=6
  mean tumor binding potential (B.P.) after compound: 0.14±0.13
PBR; CIV infusion, n=6
  reduction of PBR occupancy for 11C-(R)-PK11195 binding, average: 91.67%
PBR; [5]
  % PBR occupancy: 100% and 30% and 50%
  Binding Potential (ECO-4601): 0 (5×) and 1.81 and 0.84
[2]; 60 cell lines
  cytotoxic activity in NCI in vitro screening (in words): low micromolar range
[2]; Breast carcinoma cell, breast carcinoma cell lines, read-out: GI50 range
  GI50: 1.4 to 16.3 µM
[2]; CNS (glioblastoma) cell lines, read-out: GI50 range
  GI50: 2 to 6.5 µM
[2]; Colon carcinoma cell, colon carcinoma cell lines, read-out: GI50 range
  GI50: 3 to 17.3 µM
[2]; Ovarian carcinoma cell, ovarian carcinoma cell lines, read-out: GI50 range
  GI50: 2.5 to 6.2 µM
[2]; leukemia cell lines, read-out: GI50 range
  GI50: 0.9 to 5 µM
[2]; melanoma cell lines, read-out: GI50 range
  GI50: 1.8 to 8.1 µM
[2]; non-small cell lung carcinoma cell lines, read-out: GI50 range
  GI50: 1.9 to 10.8 µM
[2]; prostate carcinoma cell lines, read-out: GI50
  GI50: 3.5 to 9.3 µM
[2]; renal carcinoma cell lines, read-out: GI50 range
  GI50: 2.9 to 14.5 µM
Human MEK1; 0.5 μM and 5 μM
  direct inhibition of MEK1 kinase activity (in words): does not directly inhibit
Human MEK1; MEK1, 0.5 μM, % of enzyme activity over positive control, read-out: Kinase Activity (%) ± SD
  activity at 0.5 µM: 106 ± 2%
Human MEK1; MEK1, 5 μM, % of enzyme activity over positive control, read-out: Kinase Activity (%) ± SD
  activity at 5 µM: 98 ± 1%
[3]
  IC50: 1.6 ± 0.7 µM

— patent US20090062255A1, “TUMOR-TARGETING EVALUATION METHODOLOGY AND COMPOUNDS RELATED THERETO” (THALLION PHARMACEUTICALS INC., priority 2007, published 2009)
